Tests used:
[1] = system: U87-luc cells; test: Orthotopic xenograft model (U87-luc cells transplanted into the cerebrum), bioluminescence and survival; assay type: in vivo, male athymic nude mice; settings: 5 weeks after transplantation; oral gossypol 40 mg/kg and/or phenformin 100 mg/kg each day, FIG. 7
Protocol: Gossypol and phenformin to be used in an animal study were dissolved in DMSO and PBS, respectively. A composition for co-administration of gossypol and phenformin was dissolved in PBS containing 10 wt % DMSO and 10 wt % cremophor.
For preparation of orthotopic xenograft models, 4-8-week-old male athymic nude mice (Central Lab., Korea) were used. For stabilization, the mice were maintained in a sterilized environment for at least one week before use in the experiment while they were fed with a sufficient diet. […] First, the mice were anesthetized by intraperitoneal injection of 30 mg/kg of Zoletil and 10 mg/kg of Xylazine, and 2×10^5 U87-luc cells were transplanted into the right frontal lobe of the cerebrum to a depth of 4.5 mm by use of a Hamilton syringe. The U87-luci cells were injected into five mice of the same group at the same time at a rate of 0.5 l/minute by use of a micro-infusion syringe pump. Thereafter, the mice were administered orally with gossypol (40 mg/kg) and/or phenformin (100 mg/kg) each day.
An increase or decrease in the body weight was checked each day, and when a mouse whose body weight decreased by 15 wt % compared to the body weight before the start of the experiment, the mouse was euthanized according to the approved protocol. […]

[2] = system: U87 cells (GBM cells); test: MTT assay of cell viability following treatment with gossypol; assay type: cell-based; settings: 0.5, 1, 5, 10 and 50 μM gossypol, 72 hours, FIG. 1
Protocol: U87 cells (GBM cells) were treated with 0.5, 1, 5, 10 and 50 μM of gossypol for 72 hours (FIG. 1).

[3] = system: U87 neurosphere cells; test: Analysis of formation of neurospheres; assay type: cell-based; settings: 1 μM gossypol, 10 μM phenformin or mixture, 3 weeks, FIG. 3
Protocol: U87 cells were cultured in DMEM/F-12 medium containing 2 wt % 1×B27, 0.02 wt % bFGF (20 ng/ml), 0.02 wt % EGF (20 ng/ml) and 50 U/ml penicillin-[…] (100×, Gibco, Invitrogen Korea, Seoul, South Korea) to form tumor spheres. Next, the cells were seeded onto a 96-well plate at a density of 10 cells/well and treated with each of 1 μM gossypol, 10 μM phenformin and a mixture of 1 μM gossypol and 10 μM phenformin. Then, the cells were cultured at 37° C. for 3 weeks.
In FIG. 4, the percent change in the radius of the neurospheres is expressed as the percentage of the average radius of the neurospheres after each treatment relative to the average radius of the neurospheres seeded onto the 96-well plate, and in FIG. 5, the degree of neurosphere formation is expressed as the percentage of the number of the neurosphere cells after each treatment relative to the number of the neurosphere cells seeded onto the 96-well plate.

Row | Compound | degree of occurrence of brain cancer (bioluminescence signal) [1] | growth of the cells (MTT assay) [2] | size of neurosphere cells / presence in cell photographs [3]
1 | Cc1cc2c(C(C)C)c(O)c(O)c(C=O)c2c(O)c1-c1c(C)cc2c(C(C)C)c(O)c(O)c(C=O)c2c1O [gossypol] | fluorescence was observed | growth of the cells was inhibited | the size of the neurosphere cells decreased
2 | NC(N)=N/C(N)=N/CCc1ccccc1 [phenformin] | fluorescence was observed |  | the size of the neurosphere cells decreased

From patent publication US10646460B2, “Pharmaceutical composition for inhibiting growth of cancer stem cells, containing aldehyde inhibitor and biguanide-based compound” (NATIONAL CANCER CENTER, priority 2015, dated 2020)
